The source of these data is patent US7585517B2, “Transscleral delivery” (Macusight, Inc., priority 2003, dated 2009).

Data set [1] can be described thus: Retinal tissue and blood levels of rapamycin after periocular injection (HPLC/MS). As to conditions: mice. The data set is classed as in vivo. The protocol: (§1) CNV may be induced by rupturing Bruch's membrane with laser. Fifteen mice were given daily periocular injections of 5 micrograms of rapamycin in corn oil vehicle in one eye. After two days of treatment, Bruch's membrane was ruptured by laser at three sites in each eye. The fellow eye served as control and was treated with periocular injections of corn oil only. Two weeks after laser rupture, 10 mice were perfused with fluorescein-labeled dextran and CNV areas were measured in each eye on choroidal flat mounts. The remaining mice had retinas and RPE/choroid dissected and stored at −70° C. for tissue therapeutic agents level measurement.

Another data set relates to human sclera. Description: Two chamber Ussing type permeability apparatus, transscleral rapamycin delivery. The data set is classed as in vitro ADME. As to conditions: for rapamycin held by the sclera at the conclusion of the experiment: 36 hours; for total rapamycin recovered from the uveal chamber: in 36 hours. As for the experimental part: (§2) Prior to testing of sclera, loss of therapeutic agent to the glass walls of the experimental apparatus was evaluated. For the evaluation of loss of drug to the experimental apparatus, the uveal and orbital chambers were exposed to a 2 μg/mL rapamycin solution in balanced salt solution.
(§3) A 7 mm disk of fresh donor human sclera was used to separate the two chambers of the Ussing permeability apparatus. The two sides of the sclera were denoted “orbital” to represent the outer surface and “uveal” to represent the internal surface. […] Thus, in order to grossly replicate a scleral depot delivery system, the hydrophobic therapeutic agent solvents were diluted to 5% concentration in balanced salt solution (BSS) with dissolved rapamycin to form a roughly 100 μg per ml orbital chamber solution. In this example, the chamber on the orbital surface side contained a reservoir of 200 μl of rapamycin dissolved in 5% DMSO in BSS at an expected concentration of 100 μg per milliliter. The 500 μl uveal chamber was continually perfused at 0.0075 milliliter per minute and samples were collected by a fractionater in Eppendorf tubes every 4 hours. The experiment was run for 36 hours.
(§4) At the peak concentrations in the uveal chamber (250 ng/ml), rapamycin will fully dissolve in vitreous. Because the amount of therapeutic agent in the orbital chamber was declining, the steady state was estimated by the highest flux. […] A permeability coefficient (K) was calculated as:
(§5) [formula] ΔC represents the increase in concentration the compound in the uveal chamber (0.250 micrograms/ml) that occurs over the interval t, in seconds ([…]). V is the chamber volume (1.8 milliliter). A represents the exposed area of the tissue (0.385 cm^2). C0 is the initial concentration of the compound in the orbital chamber (92 microgram/ml). Calculated in this manner, the permeability coefficient, K, has the dimensions of cm/s. KTRANS thus expresses the rate at which a given solute traverses the tissue. (Advanced Therapeutic agent Delivery Reviews 52 (2001) 37-48 by Dale Geroski and Hank Edelhauser, which is incorporated herein by reference in its entirety). For this experiment KTRANS was roughly 8.82×10^−6 cm/sec, which was on the order of predictions based on MW. Comparatively, when evaluating the KTRANS of dexamethasone, which is smaller than rapamycin, and adjusting for a lower solubility, the figures for rapamycin are also in the appropriate predicted ranges. It is expected that as the external concentration of rapamycin is raised, the flux will increase. Under the ex-vivo conditions of this example, rapamycin can be delivered in the single digit micrograms per day to the vitreous. Such rates are consistent with therapeutic local tissue levels and support that rapamycin is a viable therapeutic agent for transscleral delivery to the posterior segment for vitreoretinal disease. Transscleral Rapamycin Delivery—Methanol Solution
(§6) The above procedure was followed with the exception that rapamycin was dissolved in 5% methanol in BSS. The time profile of the concentration of rapamycin in the uveal chamber is depicted in FIG. 3 (circles). The peak concentration in the uveal chamber was 271 ng/ml at t=12 to 16 hours. The total amount of rapamycin accumulated on the uveal side of the sclera is depicted as function of time in FIG. 4 (squares). The total rapamycin recovered from the uveal chamber was 3.44 micrograms in 36 hours.

Experiment in data set [2]: as above
Format: in vitro ADME, human. As to conditions: human. As for the experimental part: as §2, §3, §4, §5, §6

Data set [3] concerns laser induced CNV. Description: Inhibition of laser induced CNV by periocular rapamycin (Example 1). Format: in vivo. As to conditions: mice; daily periocular injections of 5 micrograms in corn oil, begun two days before laser rupture; two weeks after laser; SD 0.00197. As for the experimental part: as §1
The subject of data set [4] is laser induced CNV. Briefly: Reversal of laser induced CNV by periocular rapamycin (Example 2). Format: in vivo. As to conditions: mice; daily periocular 5 μg in 5 μl corn oil started one week after laser, for one week; SD 0.0053. The protocol:
Fifteen mice had Bruch's membrane ruptured with laser photocoagulation at 3 locations in each eye. After one week, 5 mice were perfused with fluorescein-labeled dextran and the baseline area of CNV was measured in each eye. At that point, the remaining mice were started on daily periocular injections of 5 μl of corn oil containing 5 μg of rapamycin in one eye and corn oil alone in the fellow eye. After one more week, the mice were perfused with fluorescein-labeled dextran and CNV areas were measured in each eye on choroidal flat mounts. The corn oil solution used is approximately a saturated solution. It is expected that lower doses will be used to deliver therapeutically effective amounts of rapamycin.
Baseline lesion CNV area was 0.0105 mm^2 with a standard deviation of 0.0037.

A further data set can be described thus: Solubility of rapamycin. Format: physicochemical.

The structures appear in SMILES notation. Like-named read-outs stand apart in the source and are kept apart here.

Consider `CO[C@H]1C[C@@H]2CC[C@@H](C)[C@@](O)(O2)C(=O)C(=O)N2CCCC[C@H]2C(=O)O[C@H]([C@H](C)C[C@@H]2CC[C@@H](O)[C@H](OC)C2)CC(=O)[C@H](C)/C=C(\C)[C@@H](O)[C@@H](OC)C(=O)[C@H](C)C[C@H](C)/C=C/C=C/C=C/1C` [rapamycin], for which the rapamycin blood levels in data set [1] (periocular 5 μg per day) was 5.57 nanograms per milligram blood. Also, the “retinal tissue levels of rapamycin, treated eyes” value in data set [1] (periocular 5 μg per day, HPLC/MS) was 25 picograms per milligram tissue. Further, in data set [1] (untreated fellow eye of animals given periocular 5 μg per day in the other eye), the “retinal tissue levels of rapamycin, fellow control eyes” value was 7 picograms per milligram tissue. In addition, in the data set on human sclera (5% DMSO in BSS), the “time of peak concentration in the uveal chamber” value lay within 8 to 12 h, the “rapamycin held by the sclera at the conclusion of the experiment” value is given as 0.57 micrograms and the “total rapamycin recovered from the uveal chamber” value is recorded as 2.67 micrograms. Also, the “peak concentration in the uveal chamber” value with human sclera (5% DMSO in BSS, about 100 μg per ml orbital chamber) worked out at 250 ng/mL. Further, the highest flux in the data set on human sclera (5% DMSO in BSS, taken as estimate of steady state) is 9.35 micrograms per square centimeter per day. Besides, in the data set with human sclera (5% methanol in BSS), the “peak concentration in the uveal chamber” value was found to be 271 ng/mL, the “time of peak concentration in the uveal chamber” value was 12 to 16 h, the “rapamycin held by the sclera at the conclusion of the experiment” value was found to be 0.41 micrograms and the “total rapamycin recovered from the uveal chamber” value amounted to 3.44 micrograms. Besides, in data set [2] (5% DMSO in BSS, read-out: permeability coefficient KTRANS), the Papp at 36 h, 92 μg/mL is ~8.82 ×10⁻⁶ cm/s. In data set [2] (5% methanol in BSS, read-out: permeability coefficient KTRANS), the Papp at 36 h, 100 μg/mL worked out at 9.56 ×10⁻⁶ cm/s. Further, the Papp at 36 h, 100 μg/mL in data set [2] (ex-vivo human scleral tissue, order of magnitude, summary of Example 3, read-out: permeability of human sclera to rapamycin) was ~10 ×10⁻⁶ cm/s. The “mean CNV area, rapamycin treated eyes” value in the data set with laser induced CNV [3] is 0.00381 mm^2. Besides, in the data set with laser induced CNV [4], the “CNV area, treated eyes” value is on record as 0.00458 mm^2. For the same compound, the “solubility in aqueous solutions” value in the data set “Solubility of rapamycin” is given as “poorly soluble”.
